Test results published in patent publication US6461997B1, “Triazole sulfones having herbicidal activity” (Monsanto Technology LLC, priority 1999, dated 2002).

Assays:
AVEFA (wild oat) = assay: Post-emergence herbicidal activity, cool season; assay type: in vivo, Avena fatua; details: abraded plants sprayed at 300, 100, 30 and 10 g/ha; about 14 days after treatment
Outline: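 Read-out was GR80, derived from percent growth inhibition relative to abraded, unsprayed control plants, observed roughly 14 days after spraying. Compounds in 50:50 acetone/water were applied at 300, 100, 30 and 10 g/ha to seedlings 9 to 14 days old whose foliage had been sand-abraded to aid uptake.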

SORVU (shattercane) = assay: Pre-emergence herbicidal activity, warm season; assay type: in vivo, Sorghum vulgare; details: for Pre-emergence activity (GR80) SORVU: GR80 = lowest tested rate (300, 100, 30, 10 g/ha) with 80% or greater inhibition, approx. 14 days after treating, 30/21° C.
Outline: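 GR80 values derive from percent inhibition relative to untreated plants, read roughly 14 days after sowing and pre-emergence soil-surface treatment (compound in 50:50 acetone/water; rates typically 10, 30, 100, 300 g/ha). Warm-season weeds grew at 30/21° C day/night, cool-season ones at 18/13° C; an asterisk marks activity without reaching 80% at the highest rate.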

[1] = test system: BRAPP (broadleaf signalgrass); assay: Pre-plant incorporated (PPI) herbicidal activity, warm season; assay type: in vivo, Brachiaria platyphylla; details: for PPI activity GR80, BRAPP: pre-plant incorporated, lowest tested rate with 80% or greater inhibition, about 14 days
Method: (§1) In another set of tests, the pre-plant incorporated (PPI) activity of compounds of this invention was evaluated on the same species as for the pre-emergence tests described above. In the PPI tests the following procedure, designed to simulate PPI application, was used.
(§2) A pre-prepared topsoil mixture (described above) was placed in a pot and compacted to a depth of 1.0 to 1.25 cm from the top of the pot. Seeds of each of several monocotyledonous and dicotyledonous annual plant species were placed on top of the soil. A sufficient quantity of soil to cover the seeds and level fill the pot was weighed into an open container. A known amount of the test compound was dissolved or suspended in an organic solvent and applied by spraying to this cover soil. The cover soil was thoroughly mixed to distribute the test compound throughout the cover soil, and was then applied as a cover layer over the seeds. Untreated soil was used as a cover layer for control pots. After treatment the plants were placed in a greenhouse where they received 0.64 cm of overhead irrigation. All subsequent watering consisted of a light overhead mist and/or subirrigation as needed for germination and growth. Tables 9 and 10 below relate to warm season plant species which were placed after pre-emergence treatment in a greenhouse with a 30/21° C. day/night temperature regime. Tables 11 and 12 below relates to cool season plant species placed after pre-emergence treatment in a greenhouse or growth chamber with an 18/13° C. day/night temperature regime. Only the compounds of Examples 1, 6, 8, 11, 13 and 15-20 were included in PPI tests.
(§3) Approximately 14 days after planting and treating, the plants were observed and herbicidal efficacy recorded as percent inhibition by comparison with untreated plants.

SETFA (giant foxtail) = assay: as above; assay type: in vivo, Setaria faberi; details: for inhibition at 30 g/ha / inhibition at 100 g/ha / inhibition at 300 g/ha / inhibition at 900 g/ha: Setaria faberi, read-out: Percent inhibition SETFA; for inhibition at 30 g/ha / inhibition at 100 g/ha / inhibition at 300 g/ha / inhibition at 900 g/ha / Percent inhibition SETFA: PPI application; for PPI activity GR80, SETFA: pre-plant incorporated, lowest tested rate with 80% or greater inhibition, about 14 days
Method: as §1, §2, §3

PANDI (fall panicum) = assay: as above; assay type: in vivo, Panicum dichotomiflorum; details: for PPI activity GR80, PANDI: pre-plant incorporated, lowest tested rate with 80% or greater inhibition, about 14 days
Method: as §1, §2, §3

SINAR (wild mustard) = assay: Pre-plant incorporated (PPI) herbicidal activity, cool season; assay type: in vivo, Sinapis arvensis; details: for PPI activity GR80, SINAR: pre-plant incorporated, lowest tested rate with 80% or greater inhibition, about 14 days
Method: as §1, §2, §3

[2] = Urochloa platyphylla, PPI application, 30 g/ha, read-out: Percent inhibition BRAPP
[3] = Urochloa platyphylla, PPI application, 100 g/ha, read-out: Percent inhibition BRAPP
[4] = Urochloa platyphylla, PPI application, 300 g/ha, read-out: Percent inhibition BRAPP
[5] = Urochloa platyphylla, PPI application, 900 g/ha, read-out: Percent inhibition BRAPP
[6] = weed, PPI application, 100 g/ha
[7] = weed, PPI application, 300 g/ha
[8] = weed, PPI application, 900 g/ha

Compound	Post-emergence activity GR80, AVEFA (AVEFA (wild oat))	Pre-emergence activity (GR80) SORVU (SORVU (shattercane))	PPI activity GR80, BRAPP [1] [g/ha]	PPI activity GR80, SETFA (SETFA (giant foxtail)) [g/ha]	PPI activity GR80, PANDI (PANDI (fall panicum)) [g/ha]	PPI activity GR80, SINAR (SINAR (wild mustard))	Percent inhibition BRAPP ([1]; PPI application, 10 g/ha) [%]	Percent inhibition BRAPP ([1]; PPI application, 30 g/ha) [%]	Percent inhibition BRAPP ([1]; PPI application, 100 g/ha) [%]	Percent inhibition BRAPP ([1]; PPI application, 300 g/ha) [%]	Percent inhibition BRAPP ([1]; PPI application, 900 g/ha) [%]	Percent inhibition SETFA (SETFA (giant foxtail); 10 g/ha) [%]	Percent inhibition SETFA (SETFA (giant foxtail); 30 g/ha) [%]	Percent inhibition SETFA (SETFA (giant foxtail); 100 g/ha) [%]	Percent inhibition SETFA (SETFA (giant foxtail); 300 g/ha) [%]	Percent inhibition SETFA (SETFA (giant foxtail); 900 g/ha) [%]	Percent inhibition SINAR (SINAR (wild mustard); weed, PPI application, 10 g/ha) [%]	Percent inhibition SINAR (SINAR (wild mustard); weed, PPI application, 30 g/ha) [%]	Percent inhibition SINAR (SINAR (wild mustard); [6]) [%]	Percent inhibition SINAR (SINAR (wild mustard); [8]) [%]	further results
CCSC(F)(F)S(=O)(=O)c1ncn(C(=O)N(CC)CC)n1 [Example 8, 1-(N,N-diethylcarbamoyl)-3-[difluoro(ethylthio)methylsulfonyl]-1,2,4-triazole]	[empty]	100 g/ha	30	30	30	100 g/ha															inhibition at 30 g/ha [1, 2]: 40%; inhibition at 100 g/ha [1, 3]: 70%; inhibition at 300 g/ha [1, 4]: 100%; inhibition at 900 g/ha [1, 5]: 100%; inhibition at 30 g/ha (SETFA (giant foxtail); 30 g/ha): 90%; inhibition at 100 g/ha (SETFA (giant foxtail); 100 g/ha): 100%; inhibition at 300 g/ha (SETFA (giant foxtail); 300 g/ha): 100%; inhibition at 900 g/ha (SETFA (giant foxtail); 900 g/ha): 100%; inhibition at 30 g/ha (PANDI (fall panicum); Panicum dichotomiflorum, PPI application, 30 g/ha, read-out: Percent inhibition PANDI): 95%; inhibition at 100 g/ha (PANDI (fall panicum); Panicum dichotomiflorum, PPI application, 100 g/ha, read-out: Percent inhibition PANDI): 100%; inhibition at 300 g/ha (PANDI (fall panicum); Panicum dichotomiflorum, PPI application, 300 g/ha, read-out: Percent inhibition PANDI): 100%; inhibition at 900 g/ha (PANDI (fall panicum); Panicum dichotomiflorum, PPI application, 900 g/ha, read-out: Percent inhibition PANDI): 100%; inhibition at 30 g/ha (SINAR (wild mustard); Brassica, weed, PPI application, 30 g/ha, read-out: Percent inhibition SINAR): 100%; inhibition at 100 g/ha (SINAR (wild mustard); Brassica, weed, PPI application, 100 g/ha, read-out: Percent inhibition SINAR): 95%; inhibition at 300 g/ha (SINAR (wild mustard); Brassica, weed, PPI application, 300 g/ha, read-out: Percent inhibition SINAR): 100%; inhibition at 900 g/ha (SINAR (wild mustard); Brassica, weed, PPI application, 900 g/ha, read-out: Percent inhibition SINAR): 80%
C=C(CC(F)(F)S(=O)(=O)c1ncn(C(=O)N(CC)CC)n1)C[Si](C)(C)C [Example 20]	[empty]	300 g/ha	100	100	100	* (activity observed, at least at highest rate, but <80% inhibition)	0	0	0	30	60	0	70	99	90	100	30	80	80	70	Percent inhibition SINAR (SINAR (wild mustard); [7]): 60%
CCN(CC)C(=O)n1cnc(S(=O)(=O)C(F)(F)SCCOC)n1 [Example 13]	[empty]	* (activity observed, at least at highest rate, but <80% inhibition)	100	30	30	[empty]	40	80	95	99	100	0	99	90	100	100	70	100	100	100	Percent inhibition PANDI (PANDI (fall panicum); PPI application, 10 g/ha): 40%; Percent inhibition PANDI (PANDI (fall panicum); PPI application, 30 g/ha): 100%; Percent inhibition PANDI (PANDI (fall panicum); PPI application, 100 g/ha): 90%; Percent inhibition PANDI (PANDI (fall panicum); PPI application, 300 g/ha): 100%; Percent inhibition PANDI (PANDI (fall panicum); PPI application, 900 g/ha): 100%
CCN(CC)C(=O)n1cnc(S(=O)(=O)C(F)(F)SCC(=O)OC)n1 [Example 11]	[empty]	* (activity observed, at least at highest rate, but <80% inhibition)	300	300		100 g/ha	0	0	60	100	100	0	0	90	60	100	0	0	0	99	Percent inhibition PANDI (PANDI (fall panicum); PPI application, 10 g/ha): 0%; Percent inhibition PANDI (PANDI (fall panicum); PPI application, 30 g/ha): 0%; Percent inhibition PANDI (PANDI (fall panicum); PPI application, 100 g/ha): 70%; Percent inhibition PANDI (PANDI (fall panicum); PPI application, 300 g/ha): 99%; Percent inhibition PANDI (PANDI (fall panicum); PPI application, 900 g/ha): 100%; Percent inhibition SINAR (SINAR (wild mustard); [7]): 0%
CCN(CC)C(=O)n1cnc(S(=O)(=O)C(F)F)n1 [Example 15, 1-(N,N-diethylcarbamoyl)-3-(difluoromethylsulfonyl)-1,2,4-triazole]	[empty]	* (activity observed, at least at highest rate, but <80% inhibition)	100	30	100	100 g/ha															inhibition at 10 g/ha (SORVU (shattercane); Sorghum bicolor, pre-emergence application, 10 g/ha, read-out: Percent inhibition, weed SORVU): 0%; inhibition at 30 g/ha (SORVU (shattercane); Sorghum bicolor, pre-emergence application, 30 g/ha, read-out: Percent inhibition, weed SORVU): 0%; inhibition at 100 g/ha (SORVU (shattercane); Sorghum bicolor, pre-emergence application, 100 g/ha, read-out: Percent inhibition, weed SORVU): 20%; inhibition at 300 g/ha (SORVU (shattercane); Sorghum bicolor, pre-emergence application, 300 g/ha, read-out: Percent inhibition, weed SORVU): 60%; inhibition at 900 g/ha (SORVU (shattercane); Sorghum bicolor, pre-emergence application, 900 g/ha, read-out: Percent inhibition, weed SORVU): 95%; inhibition at 10 g/ha ([1]; Urochloa platyphylla, PPI application, 10 g/ha, read-out: Percent inhibition BRAPP): 0%; inhibition at 30 g/ha [1, 2]: 0%; inhibition at 100 g/ha [1, 3]: 95%; inhibition at 300 g/ha [1, 4]: 99%; inhibition at 900 g/ha [1, 5]: 100%; inhibition at 30 g/ha (SETFA (giant foxtail); 30 g/ha): 40%; inhibition at 100 g/ha (SETFA (giant foxtail); 100 g/ha): 99%; inhibition at 300 g/ha (SETFA (giant foxtail); 300 g/ha): 100%; inhibition at 900 g/ha (SETFA (giant foxtail); 900 g/ha): 100%
CCN(CC)C(=O)n1cnc(S(=O)(=O)C(F)(F)SC)n1 [Example 9]	[empty]	300 g/ha						70	80	100	100		95	100	100	100		100	100	100	Percent inhibition PANDI (PANDI (fall panicum); PPI application, 30 g/ha): 100%; Percent inhibition PANDI (PANDI (fall panicum); PPI application, 100 g/ha): 100%; Percent inhibition PANDI (PANDI (fall panicum); PPI application, 300 g/ha): 100%; Percent inhibition PANDI (PANDI (fall panicum); PPI application, 900 g/ha): 100%; Percent inhibition SINAR (SINAR (wild mustard); [7]): 70%
